Test results: ChEMBL document CHEMBL1201862, “PubChem BioAssay data set” (2004)
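Cultured in 96-well plates, cells were exposed to test compound for 48 hours across five concentrations. At the GI50, growth is halved.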 The source made the active and inactive calls. Cut-off read from the data, not from the text of the source: active = GI50 up to about 1.1 µM and inactive = higher.

How the values were obtained:
Assay in all cases: inhibition of tumour cell growth, NCI panel, 48 h
[1] = test system: 786-0
[2] = test system: A498
[3] = test system: A549
[4] = test system: ACHN
[5] = test system: CAKI-1
[6] = test system: CCRF-CEM
[7] = test system: COLO 205
[8] = test system: DLD-1
[9] = test system: DMS-114
[10] = test system: DMS-273
[11] = test system: EKVX
[12] = test system: HCC 2998
[13] = test system: HCT-116
[14] = test system: HCT-15
[15] = test system: HL-60
[16] = test system: HOP-18
[17] = test system: HOP-62
[18] = test system: HT-29
[19] = test system: IGROV-1
[20] = test system: K562
[21] = test system: KM-20L2
[22] = test system: KM12
[23] = test system: LOX IMVI
[24] = test system: LXFL 529
[25] = test system: M14
[26] = test system: M19-MEL
[27] = test system: MOLT-4
[28] = test system: Malme-3M
[29] = test system: NCI-H226
[30] = test system: NCI-H23
[31] = test system: NCI-H460
[32] = test system: NCI-H522
[33] = test system: OVCAR-3
[34] = test system: OVCAR-4
[35] = test system: OVCAR-5
[36] = test system: OVCAR-8
[37] = test system: RPMI-8226
[38] = test system: RXF 393
[39] = test system: RXF 631
[40] = test system: SF-268
[41] = test system: SF-295
[42] = test system: SF-539
[43] = test system: SK-MEL-28
[44] = test system: SK-MEL-2
[45] = test system: SK-MEL-5
[46] = test system: SK-OV-3
[47] = test system: SN12C
[48] = test system: SNB-19
[49] = test system: SNB-75
[50] = test system: SNB-78
[51] = test system: SR
[52] = test system: SW-620
[53] = test system: TK-10
[54] = test system: U-251
[55] = test system: UACC-257
[56] = test system: UACC-62
[57] = test system: UO-31
[58] = test system: XF498
[59] = test system: HOP-92

Measured: GI50

COc1cc2c(cc1OC)[C@@H](Nc1ccc(F)cc1)C1COC(=O)[C@@H]1C2c1cc(OC)c(O)c(OC)c1 (some centres undefined)
1.67 µM: [14]
active: [1] 0.573 µM | [3] 0.0484 µM | [4] 0.12 µM | [5] 0.384 µM | [6] 0.14 µM | [10] 0.0832 µM | [15] 0.0982 µM | [17] 0.128 µM | [23] 0.671 µM | [27] 0.0147 µM | [29] 0.231 µM | [30] 0.632 µM | [31] < 0.0204 µM | [37] 0.16 µM | [41] 0.267 µM | [42] 0.594 µM | [48] 1 µM | [51] 0.0421 µM | [52] 0.512 µM | [54] 0.493 µM | [56] 0.589 µM
inactive: [2] 1.14 µM | [7] 12.5 µM | [8] 3.13 µM | [9] 1.15 µM | [11] > 38.2 µM | [12] 2.65 µM | [13] 3.56 µM | [16] 5.35 µM | [18] 3.66 µM | [19] 21.7 µM | [20] 1.19 µM | [21] 3.04 µM | [22] 2.77 µM | [24] 19.6 µM | [25] 1.24 µM | [26] 5.08 µM | [28] 3.07 µM | [32] 2.2 µM | [33] 23.4 µM | [34] 16.7 µM | [35] 3.33 µM | [36] 1.99 µM | [38] 3.4 µM | [39] 1.73 µM | [40] 2.1 µM | [43] 21.9 µM | [44] 5.42 µM | [45] 1.93 µM | [46] 1.56 µM | [47] 1.56 µM | [49] 2.5 µM | [50] > 20.4 µM | [53] 7.18 µM | [55] 5.53 µM | [57] 2.14 µM | [58] 3 µM

CC(C)C1COC(C(C)(C)C2=N[C@@H](C(C)C)CO2)=N1 (some centres undefined)
inactive: [1] > 100 µM | [3] > 100 µM | [4] > 100 µM | [6] > 100 µM | [7] > 100 µM | [8] > 100 µM | [9] > 100 µM | [10] > 100 µM | [11] > 100 µM | [12] > 100 µM | [13] > 100 µM | [15] > 100 µM | [16] > 100 µM | [17] > 100 µM | [59] 70.3 µM | [18] > 100 µM | [19] > 100 µM | [20] > 100 µM | [21] > 100 µM | [22] > 100 µM | [23] > 100 µM | [24] > 100 µM | [25] > 100 µM | [26] > 100 µM | [27] > 100 µM | [28] > 100 µM | [29] > 100 µM | [30] > 100 µM | [31] > 100 µM | [32] > 100 µM | [33] > 100 µM | [34] > 100 µM | [35] > 100 µM | [36] > 100 µM | [37] > 100 µM | [38] > 100 µM | [39] > 100 µM | [40] > 100 µM | [41] > 100 µM | [42] > 100 µM | [43] > 100 µM | [44] > 100 µM | [45] > 100 µM | [46] > 100 µM | [47] > 100 µM | [48] > 100 µM | [49] > 100 µM | [51] > 100 µM | [52] > 100 µM | [53] > 100 µM | [54] > 100 µM | [55] > 100 µM | [56] > 100 µM | [57] > 100 µM | [58] > 100 µM
> 100 µM: [14]
